Target: T1, Cbl-b ubiquitin ligase (N1/2 construct) (Homo sapiens, UniProt Q13191)
T1 construct: 75-nM Cbl-b (N1/2 construct) [27]
Assay: Cbl-b biochemical assay (in vitro autoubiquitination ELISA, inhibition of ubiquitin ligase activity)
Details: in vitro enzymatic activity of Cbl-b ubiquitin ligase; 75-nM Cbl-b, 100 µM ATP, 60 min reaction; read-out: Cbl-b inhibitory activity IC50
Procedure: Compounds 1–10 were tested for their ability to inhibit the in vitro enzymatic activity of the Cbl-b ubiquitin ligase (Table 3). […] There was no clear pattern of N-methylation or bromine substitution of the two pyrrole rings that directly correlated with the observed Cbl-b inhibitory activity.
An extract of Astrosclera willeyana was identified as an active source in a screening campaign of prefractionated natural product samples for the inhibition of Cbl-b ubiquitin ligase activity. The bulk extract was fractionated as described above, and the resulting fractions were evaluated for activity in the Cbl-b bioassay, the details of which have already been reported. In brief, dose response experiments with chromatography fractions and purified compounds were carried out in a Tris-HCl-based enzymatic assay buffer with the following final composition: 75-nM Cbl-b (N1/2 construct), 50-nM Ube2d2 protein (E2), 10-nM UBE1protein (E1), 50-nM biotinylated ubiquitin, and 0.5-µM unlabeled recombinant ubiquitin. The assay buffer also contained the following additives: 0.1-mM dithiothreitol, 0.5-mg/mL bovine gelatin (type B), 0.5-mM magnesium chloride, and 0.01% Triton X-100. Reactions were initiated by the addition of ATP to a final concentration of 100 µM. Following initiation, reactions were transferred to plates previously precoated overnight with 10 µg/mL of the polyubiquitin-binding domain of Cbl-b (UBA). The UBA domain of Cbl-b binds ubiquitin chains, which results in the capture and enrichment of autopolyubiquitinated Cbl-b. Following a reaction interval of 60 min, the reactions were quenched by the addition of zinc to a final concentration of 2.4 mM. Quenched reactions were incubated at room temperature overnight. Following this incubation period reaction, plates were processed as standard ELISA plates: washed thrice in Tris-buffered saline (with 0.1% Tween-20, 1X TBST), probed with avidin-conjugated horse radish peroxidase, which binds captured biotinylated ubiquitin, washed again in 1X TBST (3X), and then, an avidin-HRP-dependent fluorescent signal (indicating avidin-HRP/biotin-polyubiquitin complexes captured by the UBA coating on the plate) was detected (excitation 325 nm, emission 420 nm) using an Infinite M1000 (Tecan US, Inc., Raleigh, NC, USA) plate reader.

T1 sequence (Q13191 1-483 limits assumed): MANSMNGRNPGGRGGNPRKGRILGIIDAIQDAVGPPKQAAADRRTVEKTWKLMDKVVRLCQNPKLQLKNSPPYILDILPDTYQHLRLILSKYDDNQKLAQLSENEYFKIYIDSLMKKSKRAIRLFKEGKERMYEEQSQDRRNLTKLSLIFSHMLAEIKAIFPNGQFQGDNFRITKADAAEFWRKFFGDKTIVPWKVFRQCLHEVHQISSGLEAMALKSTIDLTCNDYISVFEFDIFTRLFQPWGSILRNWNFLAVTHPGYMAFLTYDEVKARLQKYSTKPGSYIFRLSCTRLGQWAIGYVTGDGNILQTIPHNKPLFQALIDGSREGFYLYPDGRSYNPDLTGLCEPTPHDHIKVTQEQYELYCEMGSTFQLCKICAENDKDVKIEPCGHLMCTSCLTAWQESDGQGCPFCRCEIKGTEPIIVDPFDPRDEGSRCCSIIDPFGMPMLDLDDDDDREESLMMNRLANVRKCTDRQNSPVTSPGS

| Structure (SMILES) | IC50 [nM] |
| --- | --- |
| Cn1c(C(=O)NC[C@H]2Cc3nc(N)[nH]c3[C@@H](c3c[nH]c(N)n3)[C@@H]2CNC(=O)c2cc(Br)c[nH]2)cc(Br)c1Br [Compound 10, N(1′)-methyl-2′-bromoageliferin] | 35000 |
| Cn1c(Br)ccc1C(=O)NC[C@H]1Cc2nc(N)[nH]c2[C@@H](c2c[nH]c(N)n2)[C@@H]1CNC(=O)c1cc(Br)c[nH]1 [Compound 5, N(1′)-methylisoageliferin] | 25000 |
| Cn1cc(Br)cc1C(=O)NCC1C(CNC(=O)c2ccc(Br)[nH]2)Cc2[nH]c(N)nc2C1c1c[nH]c(N)n1 (stereo not shown) [Compound 4, N(1)-methylisoageliferin] | 33000 |
| CNc1nc[n+](C)c2ncn(C/C=C(\C)CC[C@@]3(C)[C@H](C)CC[C@]4(C)C(C)=CCC[C@H]34)c12 [Compound 3, Agelasine Y] | 66000 |
| Cn1cc(Br)cc1C(=O)NC[C@H]1Cc2nc(N)[nH]c2[C@@H](c2c[nH]c(N)n2)[C@@H]1CNC(=O)c1cc(Br)cn1C [Compound 8, N(1),N(1′)-dimethylageliferin] | 19000 |
| CNc1nc[n+](C)c2ncn(C/C=C(\C)CC[C@]3(C)C4=CCCC(C)(C)[C@H]4CC[C@H]3C)c12 [Compound 2, Agelasine X] | 72000 |
| Cn1cc(Br)cc1C(=O)NC[C@H]1Cc2nc(N)[nH]c2[C@@H](c2c[nH]c(N)n2)[C@@H]1CNC(=O)c1cc(Br)c(Br)[nH]1 [Compound 9, N(1′)-methyl-2-bromoageliferin] | 19000 |
| Cn1cc(Br)cc1C(=O)NC[C@H]1Cc2nc(N)[nH]c2[C@@H](c2c[nH]c(N)n2)[C@@H]1CNC(=O)c1cc(Br)c[nH]1 [Compound 6, N(1′)-methylageliferin] | 30000 |
| CC(=CCn1cnc2c1c(N)nc[n+]2C)CCC1(C)C2=CCCC(C)(C)C2CCC1C (stereo not shown) [Compound 1, Agelasine W] | 57000 |
| Cn1cc(Br)cc1C(=O)NC[C@@H]1[C@@H](CNC(=O)c2ccc(Br)n2C)Cc2nc(N)[nH]c2[C@H]1c1c[nH]c(N)n1 [Compound 7, N(1),N(1′)-dimethylisoageliferin] | 18000 |
